From US20260102344A1, “METERED DOSE INHALERS AND SUSPENSION COMPOSITIONS” (Kindeva Drug Delivery L.P., priority 2021, published 2026) come the findings set out here.

The term solubility denotes how much of the substance goes into solution per volume.

Values after ≈ are worked out from the molar mass of the structure shown.

What all share (format): physicochemical
The nature of data set [1]: Mometasone solubility in HFO-1234ze(E) (Example 10).
The nature of data set [2]: Saturated solubility, mometasone furoate in HFO-1234ze(E) (Example 11). The method, then: Suspensions of micronized mometasone furoate were prepared in HFO-1234ze(E). […]. A second suspension included 0.5% ethanol by weight. A third suspension included 1% ethanol by weight. A fourth suspension included 2% ethanol by weight.
Devices were prepared by weighing mometasone furoate in FEP coated canisters fitted with a 50-μL valve, a Mk6s actuator, and dose counter. The valve was crimped on, and the propellant was pressure filled through the valve. The units were sonicated for 10 minutes to fully disperse the mometasone furoate. Through life dosing was tested for each suspension 3 units with the Mk6s actuator having 0.5-mm exit orifice and 0.8-mm jet length. Saturated solubility was also measured for each suspension. The results are shown in Example 10.

Data set [3] in a line: Fine particle fraction by Fast Screening Impactor (FSI), fluticasone propionate in HFO-1234ze(E) without ethanol. Particulars: HFO-1234ze(E) suspension 2 mg/mL, no ethanol. How it is done:
A suspension of micronized fluticasone propionate was prepared in HFO-1234ze(E) with no additional excipients, including ethanol. Each suspension included an amount of fluticasone propionate (2 mg/mL) to provide a nominal dose of […]. Each suspension was filled into FEP coated canisters and crimped with a metering valve and tested with a KINDEVA actuator.
When tested with KINDEVA actuators with exit orifice diameters of 0.3 mm, 0.22 mm, and 0.18 mm using a Fast Screening Impactor (FSI), it was observed that corresponding FPF of 35%, 43%, and 50% were achieved.

Data set [4] in a line: Aerodynamic particle size measurement, fluticasone propionate in HFO-1234ze(E). As to conditions: HFO-1234ze(E) suspension 2 mg/mL, 50-μL valve, 0.5 mm actuator. How it is done:
Suspensions of micronized fluticasone propionate were prepared in HFO-1234ze(E). The nominal concentration of fluticasone propionate in each suspension was 2 mg/mL. A first suspension included 0% ethanol. A second suspension included 2% ethanol by weight. A third suspension included 5% ethanol by weight. A fourth suspension included 10% ethanol by weight.
Each suspension was filled into an FEP-coated canister and fitted with a 50-μL valve. The suspensions were sonicated for 10 minutes to disperse the fluticasone propionate. The suspensions were tested using a KINDEVA actuator with a 0.5 mm exit orifice diameter.
For each suspension, FPM, median mass aerodynamic diameter (MMAD), FPF, metered dose (ex-valve), and delivered dose (ex-actuator) were measured.

Data set [5] can be described thus: Saturated solubility of fluticasone propionate in HFO-1234ze(E) with ethanol. Particulars: saturated solubility in HFO-1234ze(E), no additional excipients; for solubility: HFO-1234ze(E) propellant with ethanol, organic solvent or mixture, thermodynamic from solid. How it is done: The solubility of fluticasone propionate in each suspension was measured by content assay following filtration of the excess non-dissolved drug.

Data set [6] is described as follows: Delivered dose and particle size measurement, salbutamol sulfate in HFO-1234ze(E). Particulars: HFO-1234ze(E) suspension 1.91 mg/mL, nominal 100 μg/actuation, 63-μL valve, 0.4 mm actuator. The method, then:
A first suspension included no ethanol. […] A fifth suspension included 15% ethanol by weight. […] Each suspension was filled into FEP coated canisters, crimped with a 63-μL valve and tested with a […] actuator having an exit orifice diameter of 0.4 mm for testing. The fine particle mass (FPM), median mass aerodynamic diameter (MMAD), fine particle fraction (FPF), metered dose (ex-valve), and delivered dose (ex-act) were measured for each suspension.

Data set [7] in a line: Delivered dose and fine particle mass, salbutamol sulfate in HFO-1234ze(E) with 5.0% or 15% ethanol. As to conditions: HFO-1234ze(E) suspension 1.91 mg/mL, 63-μL APTAR, mean of triplicate. The method, then:
Each suspension was filled into FEP coated canisters, crimped with a valve, and coupled to […] actuator for testing. Fine particle mass and delivered dose were measured for each suspension.

Turning to `C[C@@H]1C[C@H]2[C@@H]3CCC4=CC(=O)C=C[C@]4(C)[C@@]3(Cl)[C@@H](O)C[C@]2(C)[C@@]1(OC(=O)c1ccco1)C(=O)CCl` [mometasone furoate], the Mean mometasone solubility was 0.8 µg/mL in data set [1] (ethanol 0% by weight) and 7.6 µg/mL in data set [1] (ethanol 1% by weight). The Saturated solubility in data set [2] (ethanol 0%) came out at 0.8 µg/mL; in data set [2] (ethanol 2%), 7.6 µg/mL.
In the case of `CCC(=O)O[C@]1(C(=O)SCF)[C@H](C)C[C@H]2[C@@H]3C[C@H](F)C4=CC(=O)C=C[C@]4(C)[C@@]3(F)[C@@H](O)C[C@@]21C` [fluticasone propionate], the FPF is recorded as 50% in data set [3] (actuator exit orifice 0.18 mm); 43% in data set [3] (actuator exit orifice 0.22 mm); 35% in data set [3] (actuator exit orifice 0.3 mm); 60.6% in data set [4] (ethanol 0% by weight); 43.8% in data set [4] (ethanol 2% by weight); 28.9% in data set [4] (ethanol 5% by weight). Besides, the FPF in data set [4] (ethanol 10% by weight) worked out at 19.6%. Also, the FPM came to 5.3 μg/actuation in data set [4] (ethanol 0% by weight), 30.0 μg/actuation in data set [4] (ethanol 2% by weight), 27.9 μg/actuation in data set [4] (ethanol 5% by weight) and 18.7 μg/actuation in data set [4] (ethanol 10% by weight). Further, the MMAD is 5.0 μm in data set [4] (ethanol 0% by weight), 5.4 μm in data set [4] (ethanol 2% by weight), 2.4 μm in data set [4] (ethanol 5% by weight) and 2.1 μm in data set [4] (ethanol 10% by weight). Moreover, the figures for the solubility in data set [5] (ethanol 0% by weight), in data set [5] (ethanol 2% by weight) and in data set [5] (ethanol 5% by weight) were 3.2 µg/mL (≈ 6.39 µM), 30.3 µg/mL (≈ 60.5 µM) and 135 µg/mL (≈ 269 µM), respectively. The “Mean fluticasone propionate solubility” value in data set [5] (ethanol 1% by weight) turned out to be 12.4 µg/mL; in data set [5] (ethanol 10% by weight), 367.5 µg/mL.
Take salbutamol sulfate: the “FPF (fine particle fraction)” value in data set [6] (ethanol 0% by weight) came out at 57.5%; in data set [6] (ethanol 2% by weight), 48.5%; in data set [6] (ethanol 5% by weight), 39.1%; in data set [6] (ethanol 10% by weight), 27.6%; in data set [6] (ethanol 15% by weight), 19.6%. The “FPM (fine particle mass)” value was found to be 45.3 μg/act in data set [6] (ethanol 0% by weight); 45.9 μg/act in data set [6] (ethanol 2% by weight); 36.8 μg/act in data set [6] (ethanol 5% by weight); 25.4 μg/act in data set [6] (ethanol 10% by weight); 18.5 μg/act in data set [6] (ethanol 15% by weight). Also, the “MMAD (median mass aerodynamic diameter)” value in data set [6] (ethanol 0% by weight) worked out at 1.9 μm; in data set [6] (ethanol 2% by weight) it was 2.0 μm; in data set [6] (ethanol 5% by weight), 1.9 μm; in data set [6] (ethanol 10% by weight), 2.0 μm; in data set [6] (ethanol 15% by weight), 2.0 μm. The Fine particle fraction in data set [7] (ethanol 5.0%) turned out to be 38%; in data set [7] (ethanol 15%), 20%.
